Reference: patent publication US12187709B2 (Genentech, Inc., priority 2021, dated 2025)

Columns and labels:
[1] = target: c-Cbl (Homo sapiens (Human), UniProt P22681); assay: C-Cbl LCK Ub TR-FRET assay (C-cbl Lck HTRF); assay type: biochemical
Procedure, shortened: (§1)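 After the ubiquitination reaction, detection mixture was added and plates incubated 20 min at room temperature before reading. IC50 values were calculated with wells lacking LCK as the low control and DMSO as the high control.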

[2] = target: Cbl-b (Homo sapiens (Human), UniProt Q13191); assay: Cbl-b LCK Ub TR-FRET assay (Cbl-b Lck HTRF); assay type: biochemical; conditions: for IC50: Cbl-b LCK Ub TR-FRET; for fold-selectivity (Cbl-b over C-cbl): ratio C-cbl Lck HTRF IC50 / Cbl-b Lck HTRF IC50
Procedure, shortened: as §1

[3] = target: Human Cbl-b (residues 40-426) (Homo sapiens (Human), UniProt Q13191); assay: Cbl-b SPR assay; assay type: binding; conditions: for Fold of selectivity: C-cbl SPR Kd vs Cbl-b SPR Kd; for Kd: SPR, 20° C.
Procedure, shortened: (§2)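 Captured protein (1300-1500 RU for both isoforms) was probed in multi-cycle kinetics with 6 concentrations in 2-fold dilution, 60 s contact, 40 μl/min, dissociation 120-1200 s, double-referenced. Kinetic and affinity parameters came from a 1:1 binding fit. For slow off-rates, kd was set independently by a chaser-based method.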

[4] = target: c-Cbl (residues 47-435) (Homo sapiens (Human), UniProt P22681); assay: c-Cbl SPR assay; assay type: binding; conditions: 20° C.
Procedure, shortened: as §2

Human Cbl-b (residues 40-426), sequence (Q13191 40-426): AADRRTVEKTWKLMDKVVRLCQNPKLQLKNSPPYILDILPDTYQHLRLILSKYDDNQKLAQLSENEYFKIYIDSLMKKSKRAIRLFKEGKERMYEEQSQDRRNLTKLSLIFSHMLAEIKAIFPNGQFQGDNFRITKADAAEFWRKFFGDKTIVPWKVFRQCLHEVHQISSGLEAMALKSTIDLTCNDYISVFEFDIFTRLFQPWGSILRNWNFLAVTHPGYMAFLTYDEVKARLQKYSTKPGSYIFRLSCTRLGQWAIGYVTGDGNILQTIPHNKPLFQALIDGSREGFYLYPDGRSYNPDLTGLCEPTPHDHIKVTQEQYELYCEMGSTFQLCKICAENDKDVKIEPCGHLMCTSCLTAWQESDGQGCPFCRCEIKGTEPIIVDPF
Cbl-b, sequence (Q13191 40-426): as above
c-Cbl, sequence (P22681 47-435): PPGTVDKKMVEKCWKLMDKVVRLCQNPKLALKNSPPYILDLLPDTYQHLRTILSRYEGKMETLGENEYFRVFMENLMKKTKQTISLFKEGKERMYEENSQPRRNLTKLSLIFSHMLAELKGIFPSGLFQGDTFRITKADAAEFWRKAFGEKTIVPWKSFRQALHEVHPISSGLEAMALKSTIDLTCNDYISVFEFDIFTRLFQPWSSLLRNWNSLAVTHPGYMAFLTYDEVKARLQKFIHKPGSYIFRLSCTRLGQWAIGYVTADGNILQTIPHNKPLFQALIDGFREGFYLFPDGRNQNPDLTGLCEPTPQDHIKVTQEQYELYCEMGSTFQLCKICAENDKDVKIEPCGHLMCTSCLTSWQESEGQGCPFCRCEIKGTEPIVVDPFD
c-Cbl (residues 47-435), sequence (P22681 47-435): as above

Row | Structure (SMILES) | IC50 [1] [nM] | IC50 [2] [nM] | fold-selectivity (Cbl-b over C-cbl) [2] [x] | Fold of selectivity [3] [×] | Kd [3] [nM] | Kd [4] [nM]
1 | CCNc1cc(N2Cc3c(cc(CNC4(C)CCC4)cc3C(F)(F)F)C2=O)cc([C@]2(c3nncn3C)C[C@@H](C)C2)c1 [Compound 91, 2-(3-(ethylamino)-5-((1s,3s)-3-methyl-1-(4-methyl-4H-1,2,4-triazol-3-yl)cyclobutyl)phenyl)-6-(((1-methylcyclobutyl)amino)methyl)-4-(trifluoromethyl)-isoindolin-1-one] | 8 | 10 | 0.8 | 3.0 | 0.3 | 0.9
2 | Cn1cnnc1C1(c2cccc(N3Cc4c(cc(CNC5(C)CCC5)cc4C(F)(F)F)C3=O)c2)CC2(CC(F)(F)C2)C1 [Compound 94, 2-(3-(6,6-difluoro-2-(4-methyl-4H-1,2,4-triazol-3-yl)spiro[3.3]heptan-2-yl)phenyl)-6-(((1-methylcyclobutyl)amino)methyl)-4-(trifluoromethyl)isoindolin-1-one] | 120 | 21 | 6.0 | 19 | 7.4 | 140
3 | Cn1cnnc1[C@]1(c2cccc(N3Cc4c(cc(CNC5(C)CCC5)cc4C(F)(F)F)C3=O)c2)C[C@H](F)C1 [Compound 95, 2-(3-((1s,3s)-3-fluoro-1-(4-methyl-4H-1,2,4-triazol-3-yl)cyclobutyl)-phenyl)-6-(((1-methylcyclobutyl)amino)methyl)-4-(trifluoromethyl)isoindolin-1-one] | 21 | 12 | 1.7 | 7.5 | 2 | 15
4 | Cn1cnnc1C1(c2cccc(N3Cc4c(cc(CNC5(C)CCC5)cc4C(F)(F)F)C3=O)c2)CC2(CN(CC(F)(F)F)C2)C1 [Compound 96, 2-(3-(6-(4-methyl-4H-1,2,4-triazol-3-yl)-2-(2,2,2-trifluoroethyl)-2-azaspiro[3.3]heptan-6-yl)phenyl)-6-(((1-methylcyclobutyl)amino)methyl)-4-(trifluoromethyl)-isoindolin-1-one] | 16000 | 4500 | 3.7 | 4.1 | 4300 | 18000
5 | Cn1cnnc1[C@]1(c2cccc(N3Cc4c(cc(CNC5(C)CCC5)cc4C(F)(F)F)C3=O)c2)C[C@H](CO)C1.O=CO [Compound 99, 2-(3-((1s,3s)-3-(hydroxymethyl)-1-(4-methyl-4H-1,2,4-triazol-3-yl)cyclobutyl)phenyl)-6-(((1-methylcyclobutyl)amino)methyl)-4-(trifluoromethyl)isoindolin-1-one formate] | 320 | 86 | 3.7 | 4.8 | 48 | 230
6 | Cn1cnnc1[C@]1(c2cccc(N3Cc4c(cc(CNC5(C)CCC5)cc4C(F)(F)F)C3=O)c2)C[C@@H](CO)C1.O=CO [Compound 100, 2-(3-((1r,3r)-3-(hydroxymethyl)-1-(4-methyl-4H-1,2,4-triazol-3-yl)cyclobutyl)phenyl)-6-(((1-methylcyclobutyl)amino)methyl)-4-(trifluoromethyl)isoindolin-1-one formate] | 86 | 25 | 3.5 | 12 | 5.8 | 72
7 | Cn1cnnc1[C@]1(c2cccc(N3Cc4c(cc(CNC5(C)CCC5)cc4C(F)(F)F)C3=O)c2)C[C@@H](CF)C1 [Compound 101, 2-(3-((1r,3r)-3-(fluoromethyl)-1-(4-methyl-4H-1,2,4-triazol-3-yl)cyclobutyl)phenyl)-6-(((1-methylcyclobutyl)amino)methyl)-4-(trifluoromethyl)isoindolin-1-one] | 9.8 | 9.1 | 1.1 | 4.9 | 0.85 | 4.2
8 | Cn1cnnc1[C@]1(c2cccc(N3Cc4c(cc(CNC5(C)CCC5)cc4C(F)(F)F)C3=O)c2)C[C@H](CF)C1 [Compound 102, 2-(3-((1s,3s)-3-(fluoromethyl)-1-(4-methyl-4H-1,2,4-triazol-3-yl)cyclobutyl)phenyl)-6-(((1-methylcyclobutyl)amino)methyl)-4-(trifluoromethyl)isoindolin-1-one] | 11 | 7.2 | 1.5 | 4.7 | 0.83 | 3.9

Other lines, results leading:

Row | IC50 [1] [nM] | IC50 [2] [nM] | fold-selectivity (Cbl-b over C-cbl) [2] [x] | Fold of selectivity [3] [×] | Kd [3] [nM] | Kd [4] [nM] | Structure (SMILES)
9 | 26 | 14 | 1.7 | 7.8 | 1.6 | 12 | COC[C@H]1C[C@@](c2cccc(N3Cc4c(cc(CNC5(C)CCC5)cc4C(F)(F)F)C3=O)c2)(c2nncn2C)C1 [Compound 103, 2-(3-((1s,3s)-3-(methoxymethyl)-1-(4-methyl-4H-1,2,4-triazol-3-yl)cyclobutyl)phenyl)-6-(((1-methylcyclobutyl)amino)methyl)-4-(trifluoromethyl)isoindolin-1-one]
10 | 17 | 13 | 1.4 | 9.1 | 1.6 | 15 | COC[C@H]1C[C@](c2cccc(N3Cc4c(cc(CNC5(C)CCC5)cc4C(F)(F)F)C3=O)c2)(c2nncn2C)C1 [Compound 104, 2-(3-((1r,3r)-3-(methoxymethyl)-1-(4-methyl-4H-1,2,4-triazol-3-yl)cyclobutyl)phenyl)-6-(((1-methylcyclobutyl)amino)methyl)-4-(trifluoromethyl)isoindolin-1-one]
11 | 160 | 17 | 9.2 | 21 | 5.2 | 120 | Cn1cnnc1[C@]1(c2cccc(N3Cc4c(cc(CNC5(C)CCC5)cc4C(F)(F)F)C3=O)c2)C[C@]2(CCO2)C1 [Compound 108, 2-(3-((4r,6r)-6-(4-methyl-4H-1,2,4-triazol-3-yl)-1-oxaspiro[3.3]heptan-6-yl)phenyl)-6-(((1-methylcyclobutyl)amino)methyl)-4-(trifluoromethyl)isoindolin-1-one]
12 | 220 | 47 | 4.6 | 7.0 | 21 | 140 | Cn1cnnc1[C@]1(c2cccc(N3Cc4c(cc(CNC5(C)CCC5)cc4C(F)(F)F)C3=O)c2)C[C@@]2(CCO2)C1 [Compound 109, 2-(3-((4s,6s)-6-(4-methyl-4H-1,2,4-triazol-3-yl)-1-oxaspiro[3.3]heptan-6-yl)phenyl)-6-(((1-methylcyclobutyl)amino)methyl)-4-(trifluoromethyl)isoindolin-1-one]
13 | 9400 | 1400 | 6.5 | 7.2 | 1100 | 7600 | Cn1cnnc1C1(c2cccc(N3Cc4c(cc(CNC5(C)CCC5)cc4C(F)(F)F)C3=O)c2)CN(CC(F)(F)F)C1 [Compound 110, 2-(3-(3-(4-methyl-4H-1,2,4-triazol-3-yl)-1-(2,2,2-trifluoroethyl)azetidin-3-yl)phenyl)-6-(((1-methylcyclobutyl)amino)methyl)-4-(trifluoromethyl)isoindolin-1-one]
14 | 20000 | 4900 | 4.1 | 8.6 | 3600 | 31000 | Cn1cnnc1C1(c2cccc(N3Cc4c(cc(CNC5(C)CCC5)cc4C(F)(F)F)C3=O)c2)CN(C2COC2)C1 [Compound 111, 2-(3-(3-(4-methyl-4H-1,2,4-triazol-3-yl)-1-(oxetan-3-yl)azetidin-3-yl)phenyl)-6-(((1-methylcyclobutyl)amino)methyl)-4-(trifluoromethyl)isoindolin-1-one]
15 | 18000 | 3500 | 5.3 | 13 | 2700 | 34000 | Cn1cnnc1C1(c2cccc(N3Cc4c(cc(CNC5(C)CCC5)cc4C(F)(F)F)C3=O)c2)CN(S(C)(=O)=O)C1 [Compound 113, 2-(3-(3-(4-methyl-4H-1,2,4-triazol-3-yl)-1-(methylsulfonyl)azetidin-3-yl)phenyl)-6-(((1-methylcyclobutyl)amino)methyl)-4-(trifluoromethyl)isoindolin-1-one]
16 | 150 | 25 | 6.0 | 15 | 8.1 | 110 | CO[C@H]1C[C@@](c2cccc(N3Cc4c(cc(CNC5(C)CCC5)cc4C(F)F)C3=O)c2)(c2nncn2C)C1 [Compound 116, 4-(difluoromethyl)-2-(3-((1s,3s)-3-methoxy-1-(4-methyl-4H-1,2,4-triazol-3-yl)cyclobutyl)phenyl)-6-(((1-methylcyclobutyl)amino)methyl)isoindolin-1-one]
17 | 60 | 12 | 5.0 | 16 | 3.2 | 53 | CO[C@H]1C[C@](c2cccc(N3Cc4c(cc(CNC5(C)CCC5)cc4C(F)F)C3=O)c2)(c2nncn2C)C1 [Compound 117, 4-(difluoromethyl)-2-(3-((1r,3r)-3-methoxy-1-(4-methyl-4H-1,2,4-triazol-3-yl)cyclobutyl)phenyl)-6-(((1-methylcyclobutyl)amino)methyl)isoindolin-1-one]
